Source: patent US11865158B2, “Process and composition matter of nanoparticle formulation for systemic treatment of sepsis” (PURDUE RESEARCH FOUNDATION, priority 2019, dated 2024)

Legend:
[1] = tested on: J774a.1 macrophages; test: Cytotoxicity by propidium iodide staining and flow cytometry; assay type: cell-based; details: equivalent to 50-150 μg/mL PMB, 24 h
Procedure: (§1) As a cationic polypeptide, PMB is known to be effective in neutralizing LPS as early as in 1967, but its systemic application is hampered by dose-limiting nephro- and neurotoxicity. PMB manifests the toxicity via the increased membrane permeability, resulting in increased influx of ions and water and subsequent cell swelling and lysis. To test if the toxicity can be reduced by supplying PMB as a NP-bound form, THP-1 monocytes or J774a.1 macrophages were incubated with D-TZP or free PMB at a concentration equivalent to 50-150 μg/mL PMB for 24 h, stained with propidium iodide (PI), which penetrates damaged cell membrane but not intact membrane, and analyzed with flow cytometry. […] Substantial reduction of membrane damage is attributable to the surface-bound ZWC, which provides a negatively charged cloud beyond the remit of PMB due to the large size, attenuating direct exposure of PMB to cell membrane.
(§2) Cytotoxicity of PMB and D-TZP. Cytotoxic concentration range of free PMB was first determined with THP1-XBlue-MD2-CD14 cells by the MTT assay. […] The PI fluorescence of 10,000 cells was measured with the BD Accuri C6 flow cytometer (BD Biosciences, San Jose, CA) via the FL-2 detector. Nanoparticles and cell debris were excluded by gating, but all cell population (dead or alive) was analyzed. […]

[2] = tested on: C57BL/6 male mice; test: In vivo safety; details: dose exceeding its LD50
Procedure: D-TZP was intraperitoneally (IP) or intravenously (IV) injected to C57BL/6 male mice at doses equivalent to as high as 40 mg/kg PMB and 10 mg/kg PMB, respectively, much greater than the known IP and IV LD50 values of free PMB (20 mg/kg for IP and 5 mg/kg for IV). […] Higher doses have not been tested; therefore, the maximum tolerated dose of D-TZP in each route could not be defined. […] The increased tolerated dose is consistent with the reduced in vitro toxicity of D-TZP.
In vivo safety. 6-10 week-old C57BL/6 male mice were used to evaluate the safety of D-TZP and TZP in comparison with free PMB. The treatment was administered by IP (2.5-40 mg/kg) or IV (3-10 mg/kg) injection. The body weight changes were monitored daily up to 1 week. For blood chemistry and histology analysis, blood and major organs were collected at 12 h post IV injection of vehicle (5% dextrose), free PMB, D-TZP, or TZP (all equivalent to 10 mg/kg PMB). Animals were sacrificed by CO2 asphyxiation. Blood was obtained by cardiac puncture. Major organs were fixed in 10% formalin, embedded in paraffin, sectioned, and stained with hematoxylin and eosin for histological evaluation. The samples were imaged with a Nikon 90i upright microscope. To evaluate the safety of multiple intravenous injections, 5 mg/kg PMB or 10 mg/kg PMB equivalent D-TZP was given every 2 days up to 4 times total with body weight monitoring over 2 weeks.

[3] = tested on: LPS-induced NF-kB/AP-1 activation in THP1-XBlue-MD2-CD14 cells; test: In vitro anti-LPS activity, SEAP reporter assay, LPS added simultaneously with treatment; assay type: cell-based, human; details: 10 ng/mL LPS, free PMB at 150 μg/mL
Procedure: (§3) To investigate if D-TZP can neutralize LPS, a reporter cell line responding to LPS was incubated with LPS and free PMB or D-TZP's (with different amounts of PMB). THP1-XBlue-MD2-CD14, derived from the human monocytic THP-1 cell line, overexpresses MD2 and CD14 to amplify the response to TLR4 agonist LPS. Color change of the Quanti-Blue reagent (NF-kB/AP-1-inducible secreted embryonic alkaline phosphatase (SEAP) reporter protein) reflects NF-kB/AP-1 activation due to LPS. LPS-induced SEAP production was measured at 620 nm. The reporter cells with 10 ng/mL of LPS expressed a high level of SEAP as compared to non-challenged cells. […] A supernatant was obtained from each mixture to separate unbound LPS and added to THP1-XBlue-MD2-CD14 cells.
(§4) In vitro anti-LPS activity. Five microliters of LPS ([…]) was mixed with 15 μL of free PMB, D-TZP, or TZP at different concentrations in a flat-bottom 96-well plate. THP1-XBlue-MD2-CD14 cell suspension (10^5 cells in 180 μL) was then added to the mixtures. After 24 h incubation, cells were centrifugated at 233 rcf for 5 min. Twenty microliters of the cell medium was mixed with the Quanti-Blue reagent. After 2 h incubation, the color was measured at 620 nm by a Spectra Max M3 microplate reader (Molecular Devices, Sunnyvale, CA). […] The medium was analyzed in the same manner as above.

[4] = tested on: THP-1 monocytes; test: Cytotoxicity by propidium iodide staining and flow cytometry; assay type: cell-based, human; details: equivalent to 50-150 μg/mL PMB, 24 h
Procedure: as §1, §2

[5] = tested on: LPS-induced NF-kB/AP-1 activation in THP1-XBlue-MD2-CD14 cells; test: In vitro anti-LPS activity, SEAP reporter assay, LPS pretreated and supernatant added to cells; assay type: cell-based, human; details: 10 ng/mL LPS, equivalent to PMB 9.5-18.9 μg/mL
Procedure: as §3, §4

Substance: polymyxin B [PMB]
- PI fluorescence (membrane damage) [1]: dose-dependent PI fluorescence signal
- mortality [2]: resulted in mortality
- LPS-induced SEAP production [3]: reduced the SEAP production
- PI fluorescence (membrane damage) [4]: dose-dependent PI fluorescence signal
- SEAP production, LPS pretreated for 1 h, supernatant added to cells [5]: significant reduction in SEAP production
